Reference: patent US8703701B2 (Indiana University Research and Technology Corporation, priority 2009, dated 2014)
Starred links: 1 amine or outer side, 2 acyl side, 3 side chain; linkers in the order of their positions; H or OH if unused. Non-standard residues stand in square brackets, D forms with d. Residues, ends and D or L forms follow the SMILES beside them. Groups on a side chain read outwards from the residue. *: point of attachment. γGlu = O=C(O)[C@H](CCC(=O)[*:2])N[*:1]; Stearoyl = CCCCCCCCCCCCCCCCCC(=O)*; Palmitoyl = CCCCCCCCCCCCCCCC(=O)*; Myristoyl = CCCCCCCCCCCCCC(=O)*; Aib = CC(C)(N)C(=O)O

What was measured:
glucagon receptor = target: T1, glucagon receptor (Homo sapiens, UniProt P47871); experiment: cAMP induction, firefly luciferase reporter assay, glucagon receptor; assay type: cell-based; settings: for Activity at Glucagon Receptor % Relative Activity: compared to native glucagon; for EC50: Activity at Glucagon Receptor EC50 [pM]
T1 construct: expressed in transfected cells; host or cells: HEK293
Procedure: (§1) The ability of each peptide to induce cAMP was measured in a firefly luciferase-based reporter assay.
(§2) At the end of the incubation, 100 μL of LucLite luminescence substrate reagent (Perkin Elmer, Wellesley, Mass.) were added to each well. The plate was shaken briefly, incubated 10 min in the dark and light output was measured on MicroBeta-1450 liquid scintillation counter (Perkin-Elmer, Wellesley, Mass.).

GLP-1 receptor = target: T2, GLP-1 receptor (Homo sapiens, UniProt P43220); experiment: cAMP induction, firefly luciferase reporter assay, GLP-1 receptor; assay type: cell-based; settings: for Activity at GLP-1 Receptor % Relative Activity: compared to native GLP-1
T2 construct: expressed in transfected cells; host or cells: HEK293
Procedure: as §1, §2

[1] = Activity at GLP-1 Receptor EC50 [pM], Table 3A

T1 sequence (P47871 26-477): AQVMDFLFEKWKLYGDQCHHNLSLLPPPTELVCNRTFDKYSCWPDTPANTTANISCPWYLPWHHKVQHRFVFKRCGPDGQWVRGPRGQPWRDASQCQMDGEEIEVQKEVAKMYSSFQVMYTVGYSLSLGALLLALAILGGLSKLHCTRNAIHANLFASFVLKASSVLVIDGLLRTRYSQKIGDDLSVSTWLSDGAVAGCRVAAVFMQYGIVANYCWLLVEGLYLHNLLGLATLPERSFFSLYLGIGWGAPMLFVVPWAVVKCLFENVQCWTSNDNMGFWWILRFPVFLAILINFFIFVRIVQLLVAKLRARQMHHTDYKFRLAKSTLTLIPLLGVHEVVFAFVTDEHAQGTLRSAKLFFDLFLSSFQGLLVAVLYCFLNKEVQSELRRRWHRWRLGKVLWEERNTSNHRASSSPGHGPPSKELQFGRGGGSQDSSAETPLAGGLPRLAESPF
T2 sequence (P43220 24-463): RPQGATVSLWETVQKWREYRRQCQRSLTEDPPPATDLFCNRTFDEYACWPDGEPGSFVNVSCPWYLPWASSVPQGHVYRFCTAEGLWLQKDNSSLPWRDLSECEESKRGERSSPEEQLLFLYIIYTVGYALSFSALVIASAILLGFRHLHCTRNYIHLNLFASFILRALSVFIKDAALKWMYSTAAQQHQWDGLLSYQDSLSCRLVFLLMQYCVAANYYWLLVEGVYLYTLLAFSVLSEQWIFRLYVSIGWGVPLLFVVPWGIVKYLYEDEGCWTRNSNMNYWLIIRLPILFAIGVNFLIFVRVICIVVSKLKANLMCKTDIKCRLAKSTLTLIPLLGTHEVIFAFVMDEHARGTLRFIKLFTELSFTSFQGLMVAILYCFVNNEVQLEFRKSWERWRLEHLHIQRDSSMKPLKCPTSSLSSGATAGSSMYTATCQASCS

SMILES: CCCCCCCCCCCCCCCC(=O)N[C@@H](CCC(=O)N[C@@H](CCC(=O)NCCCC[C@H](NC(=O)[C@H](CC(=O)O)NC(=O)[C@H](CO)NC(=O)[C@@H](NC(=O)[C@H](Cc1ccccc1)NC(=O)[C@@H](NC(=O)CNC(=O)[C@H](CCC(N)=O)NC(=O)[C@@H](CO)NC(=O)[C@@H](N)Cc1c[nH]cn1)[C@@H](C)O)[C@@H](C)O)C(=O)N[C@@H](CO)C(=O)N[C@@H](CCCCN)C(=O)N[C@@H](Cc1ccc(O)cc1)C(=O)N[C@@H](CC(C)C)C(=O)N[C@@H](CC(=O)O)C(=O)NC(C)(C)C(=O)N[C@@H](CCCNC(=N)N)C(=O)N[C@@H](C)C(=O)N[C@@H](C)C(=O)N[C@@H](CCC(N)=O)C(=O)N[C@@H](CC(=O)O)C(=O)N[C@@H](Cc1ccccc1)C(=O)N[C@H](C(=O)N[C@@H](CCC(N)=O)C(=O)N[C@@H](Cc1c[nH]c2ccccc12)C(=O)N[C@@H](CC(C)C)C(=O)N[C@@H](CCSC)C(=O)N[C@@H](CC(=O)O)C(=O)N[C@H](C(N)=O)[C@@H](C)O)C(C)C)C(=O)O)C(=O)O [compound 44] (H-H[dS]QGTFTSDK([γGlu-γGlu-Palmitoyl])SKYLD[Aib]RAAQDFVQWLMDT-NH2; N-terminus assumed)
- Activity at Glucagon Receptor % Relative Activity (glucagon receptor; Table 3A): 661%
- Activity at GLP-1 Receptor % Relative Activity (GLP-1 receptor; Table 3A): 524%

SMILES: CCCCCCCCCCCCCCCC(=O)N[C@@H](CCC(=O)NCCCC[C@H](NC(=O)[C@H](CC(=O)O)NC(=O)[C@H](CO)NC(=O)[C@@H](NC(=O)[C@H](Cc1ccccc1)NC(=O)[C@@H](NC(=O)CNC(=O)[C@H](CCC(N)=O)NC(=O)[C@@H](C)NC(=O)[C@@H](N)Cc1c[nH]cn1)[C@@H](C)O)[C@@H](C)O)C(=O)N[C@@H](CO)C(=O)N[C@@H](CCCCN)C(=O)N[C@@H](Cc1ccc(O)cc1)C(=O)N[C@@H](CC(C)C)C(=O)N[C@@H](CC(=O)O)C(=O)N[C@@H](CCC(=O)O)C(=O)N[C@@H](CCCNC(=N)N)C(=O)N[C@@H](C)C(=O)N[C@@H](C)C(=O)N[C@@H](CCC(N)=O)C(=O)N[C@@H](CC(=O)O)C(=O)N[C@@H](Cc1ccccc1)C(=O)N[C@H](C(=O)N[C@@H](CS)C(=O)N[C@@H](Cc1c[nH]c2ccccc12)C(=O)N[C@@H](CC(C)C)C(=O)N[C@@H](CC(C)C)C(=O)N[C@@H](CC(=O)O)C(=O)N[C@H](C(N)=O)[C@@H](C)O)C(C)C)C(=O)O [compound 59]
- Activity at Glucagon Receptor % Relative Activity (glucagon receptor; Table 6): 490%
- EC50 (GLP-1 receptor; Activity at GLP-1 Receptor EC50 [nM], Table 6): 0.019 nM
- Activity at GLP-1 Receptor % Relative Activity (GLP-1 receptor; Table 6): 484%

SMILES: CCCCCCCCCCCCCCCCCC(=O)N[C@@H](CCC(=O)N[C@@H](CCC(=O)NCCCC[C@H](NC(=O)[C@H](CC(=O)O)NC(=O)[C@H](CO)NC(=O)[C@@H](NC(=O)[C@H](Cc1ccccc1)NC(=O)[C@@H](NC(=O)CNC(=O)[C@H](CCC(N)=O)NC(=O)C(C)(C)NC(=O)[C@@H](N)Cc1c[nH]cn1)[C@@H](C)O)[C@@H](C)O)C(=O)N[C@@H](CO)C(=O)N[C@@H](CCCCN)C(=O)N[C@@H](Cc1ccc(O)cc1)C(=O)N[C@@H](CC(C)C)C(=O)N[C@@H](CC(=O)O)C(=O)NC(C)(C)C(=O)N[C@@H](CCCNC(=N)N)C(=O)N[C@@H](C)C(=O)N[C@@H](C)C(=O)N[C@@H](CCC(N)=O)C(=O)N[C@@H](CC(=O)O)C(=O)N[C@@H](Cc1ccccc1)C(=O)N[C@H](C(=O)N[C@@H](CCC(N)=O)C(=O)N[C@@H](Cc1c[nH]c2ccccc12)C(=O)N[C@@H](CC(C)C)C(=O)N[C@@H](CCSC)C(=O)N[C@@H](CC(=O)O)C(=O)N[C@H](C(N)=O)[C@@H](C)O)C(C)C)C(=O)O)C(=O)O [compound 71] (H-H[Aib]QGTFTSDK([γGlu-γGlu-Stearoyl])SKYLD[Aib]RAAQDFVQWLMDT-NH2; N-terminus assumed)
- EC50 (glucagon receptor; Table 3B): 4 pM
- Activity at Glucagon Receptor % Relative Activity (glucagon receptor; Table 3B): 975%
- Activity at GLP-1 Receptor % Relative Activity (GLP-1 receptor; Table 3B): 1222%

SMILES: CCCCCCCCCCCCCC(=O)N[C@@H](CCC(=O)N[C@@H](CCC(=O)NCCCC[C@H](NC(=O)[C@H](CC(=O)O)NC(=O)[C@H](CO)NC(=O)[C@@H](NC(=O)[C@H](Cc1ccccc1)NC(=O)[C@@H](NC(=O)CNC(=O)[C@H](CCC(N)=O)NC(=O)C(C)(C)NC(=O)[C@@H](N)Cc1c[nH]cn1)[C@@H](C)O)[C@@H](C)O)C(=O)N[C@@H](CO)C(=O)N[C@@H](CCCCN)C(=O)N[C@@H](Cc1ccc(O)cc1)C(=O)N[C@@H](CC(C)C)C(=O)N[C@@H](CC(=O)O)C(=O)NC(C)(C)C(=O)N[C@@H](CCCNC(=N)N)C(=O)N[C@@H](C)C(=O)N[C@@H](C)C(=O)N[C@@H](CCC(N)=O)C(=O)N[C@@H](CC(=O)O)C(=O)N[C@@H](Cc1ccccc1)C(=O)N[C@H](C(=O)N[C@@H](CCC(N)=O)C(=O)N[C@@H](Cc1c[nH]c2ccccc12)C(=O)N[C@@H](CC(C)C)C(=O)N[C@@H](CCSC)C(=O)N[C@@H](CC(=O)O)C(=O)N[C@H](C(N)=O)[C@@H](C)O)C(C)C)C(=O)O)C(=O)O [compound 70] (H-H[Aib]QGTFTSDK([γGlu-γGlu-Myristoyl])SKYLD[Aib]RAAQDFVQWLMDT-NH2; N-terminus assumed)
- EC50 (glucagon receptor; Table 3B): 6 pM
- Activity at Glucagon Receptor % Relative Activity (glucagon receptor; Table 3B): 709%
- EC50 (GLP-1 receptor; Activity at GLP-1 Receptor EC50 [pM], Table 3B): 0.004 nM
- Activity at GLP-1 Receptor % Relative Activity (GLP-1 receptor; Table 3B): 500%

SMILES: CCCCCCCCCCCCCCCC(=O)N[C@@H](CCC(=O)N[C@@H](CCC(=O)NCCCC[C@H](NC(=O)[C@H](CC(=O)O)NC(=O)[C@H](CO)NC(=O)[C@@H](NC(=O)[C@H](Cc1ccccc1)NC(=O)[C@@H](NC(=O)CNC(=O)[C@H](CCC(N)=O)NC(=O)C(C)(C)NC(=O)[C@@H](N)Cc1c[nH]cn1)[C@@H](C)O)[C@@H](C)O)C(=O)N[C@@H](CO)C(=O)N[C@@H](CCCCN)C(=O)N[C@@H](Cc1ccc(O)cc1)C(=O)N[C@@H](CC(C)C)C(=O)N[C@@H](CC(=O)O)C(=O)N[C@@H](CCC(=O)O)C(=O)N[C@@H](CCCNC(=N)N)C(=O)N[C@@H](C)C(=O)N[C@@H](C)C(=O)N[C@@H](CCC(N)=O)C(=O)N[C@@H](CC(=O)O)C(=O)N[C@@H](Cc1ccccc1)C(=O)N[C@H](C(=O)N[C@@H](CCC(N)=O)C(=O)N[C@@H](Cc1c[nH]c2ccccc12)C(=O)N[C@@H](CC(C)C)C(=O)N[C@@H](CCSC)C(=O)N[C@@H](CC(=O)O)C(=O)N[C@H](C(N)=O)[C@@H](C)O)C(C)C)C(=O)O)C(=O)O [compound 50]
- EC50 (glucagon receptor; Table 3A): 2 pM
- Activity at Glucagon Receptor % Relative Activity (glucagon receptor; Table 3A): 1000%
- EC50 (GLP-1 receptor; [1]): 0.005 nM
- Activity at GLP-1 Receptor % Relative Activity (GLP-1 receptor; Table 3A): 500%

SMILES: CCCCCCCCCCCCCCCC(=O)N[C@@H](CCC(=O)NCCCC[C@H](NC(=O)[C@H](CC(=O)O)NC(=O)[C@H](CO)NC(=O)[C@@H](NC(=O)[C@H](Cc1ccccc1)NC(=O)[C@@H](NC(=O)CNC(=O)[C@H](CCC(N)=O)NC(=O)[C@@H](CO)NC(=O)[C@@H](N)Cc1c[nH]cn1)[C@@H](C)O)[C@@H](C)O)C(=O)N[C@@H](CO)C(=O)N[C@@H](CCCCN)C(=O)N[C@@H](Cc1ccc(O)cc1)C(=O)N[C@@H](CC(C)C)C(=O)N[C@@H](CC(=O)O)C(=O)N[C@@H](CCC(=O)O)C(=O)N[C@@H](CCC(N)=O)C(=O)N[C@@H](C)C(=O)N[C@@H](C)C(=O)N[C@@H](CCCCN)C(=O)N[C@@H](CCC(=O)O)C(=O)N[C@@H](Cc1ccccc1)C(=O)N[C@H](C(=O)N[C@@H](CS)C(=O)N[C@@H](Cc1c[nH]c2ccccc12)C(=O)N[C@@H](CC(C)C)C(=O)N[C@@H](CC(C)C)C(=O)N[C@@H](CC(=O)O)C(=O)N[C@H](C(=O)NCC(=O)NCC(=O)O)[C@@H](C)O)[C@@H](C)CC)C(=O)O [compound 56]
- Activity at Glucagon Receptor % Relative Activity (glucagon receptor; Table 5): 272%
- EC50 (GLP-1 receptor; Activity at GLP-1 Receptor EC50 [nM], Table 5): 0.068 nM
- Activity at GLP-1 Receptor % Relative Activity (GLP-1 receptor; Table 5): 125%

SMILES: CCCCCCCCCCCCCCCC(=O)N[C@@H](CCC(=O)N[C@@H](CCC(=O)NCCCC[C@H](NC(=O)[C@H](CC(=O)O)NC(=O)[C@H](CO)NC(=O)[C@@H](NC(=O)[C@H](Cc1ccccc1)NC(=O)[C@@H](NC(=O)CNC(=O)[C@H](CCC(N)=O)NC(=O)C(C)(C)NC(=O)[C@@H](N)Cc1c[nH]cn1)[C@@H](C)O)[C@@H](C)O)C(=O)N[C@@H](CO)C(=O)N[C@@H](CCCCN)C(=O)N[C@@H](Cc1ccc(O)cc1)C(=O)N[C@@H](CC(C)C)C(=O)N[C@@H](CC(=O)O)C(=O)NC(C)(C)C(=O)N[C@@H](CCCNC(=N)N)C(=O)N[C@@H](C)C(=O)N[C@@H](C)C(=O)N[C@@H](CCC(N)=O)C(=O)N[C@@H](CC(=O)O)C(=O)N[C@@H](Cc1ccccc1)C(=O)N[C@H](C(=O)N[C@@H](CCC(N)=O)C(=O)N[C@@H](Cc1c[nH]c2ccccc12)C(=O)N[C@@H](CC(C)C)C(=O)N[C@@H](CC(C)C)C(=O)N[C@@H](CC(=O)O)C(=O)N[C@H](C(N)=O)[C@@H](C)O)C(C)C)C(=O)O)C(=O)O [compound 49]
- Activity at Glucagon Receptor % Relative Activity (glucagon receptor; Table 3A): 511%
- EC50 (GLP-1 receptor; [1]): 0.006 nM
- Activity at GLP-1 Receptor % Relative Activity (GLP-1 receptor; Table 3A): 375%

SMILES: CCCCCCCCCCCCCCCC(=O)N[C@@H](CCC(=O)NCCCC[C@H](NC(=O)[C@H](CC(=O)O)NC(=O)[C@H](CO)NC(=O)[C@@H](NC(=O)[C@H](Cc1ccccc1)NC(=O)[C@@H](NC(=O)CNC(=O)[C@H](CCC(N)=O)NC(=O)[C@@H](CO)NC(=O)[C@@H](N)Cc1c[nH]cn1)[C@@H](C)O)[C@@H](C)O)C(=O)N[C@@H](CO)C(=O)N[C@@H](CCCCN)C(=O)N[C@@H](Cc1ccc(O)cc1)C(=O)N[C@@H](CC(C)C)C(=O)N[C@@H](CC(=O)O)C(=O)N[C@@H](CCC(=O)O)C(=O)N[C@@H](CCC(N)=O)C(=O)N[C@@H](C)C(=O)N[C@@H](C)C(=O)N[C@@H](CCCCN)C(=O)N[C@@H](CCC(=O)O)C(=O)N[C@@H](Cc1ccccc1)C(=O)N[C@H](C(=O)N[C@@H](CS)C(=O)N[C@@H](Cc1c[nH]c2ccccc12)C(=O)N[C@@H](CC(C)C)C(=O)N[C@@H](CC(C)C)C(=O)N[C@@H](CC(=O)O)C(=O)N[C@H](C(=O)N[C@@H](CCC(=O)O)C(N)=O)[C@@H](C)O)[C@@H](C)CC)C(=O)O [compound 83]
- Activity at Glucagon Receptor % Relative Activity (glucagon receptor; Table 3C): 61%
- Activity at GLP-1 Receptor % Relative Activity (GLP-1 receptor; Table 3C): 288%
